In patent US20120164203A1, “PROCESS FOR PREPARATION OF STABLE, MICROENCAPSULATED AND SUSTAINED RELEASE BIOCIDAL ACTIVES AND COMPOSITION THEREOF” (priority 2009, published 2012):

Tests used:
[1] = Analytical determination of active ingredient leaching out of a paint film (UV-Visible); assay type: physicochemical; settings: PVA paint film, total IPBC incorporated 2000 ppm
Description: The active ingredient is added to PVA paint to a final concentration of 2000 ppm. Drawdown of the paint samples are prepared by casting a 3-mil film onto drawdown paperboard (Lanetta). The drawdown samples are allowed to dry at room temperature for 24 hrs. A sample of 2×6 cm is cut. The cut samples are then placed in 100 ml of water in a closed beaker for the different duration of time limits. At different time intervals the water is collected and replaced with the same amount of water. The quantity of the active ingredient present in each leachate is determined by UV-Visible spectroscopic method.

[2] = Analytical determination of active ingredient in the leachate (water, UV-Vis); assay type: physicochemical; settings: active 5% in water
Description: The active ingredient is added (5%) to required amount of water. After a certain amount of time, the leachate is collected through a filter and the same amount of water replaced. The amount of active ingredients of each leachate is determined analytically by UV-Vis.

[3] = test system: Staphylococcus aureus ATCC 6538; assay: Antimicrobial activity (log reduction) on flexible PVC surface, Z 2801:2000; assay type: cell-based; settings: 24 hrs incubation
Description: (§1) The aqueous biocidal dispersion containing encapsulated biocide was prepared as described in example 19 to provide 20% BIT (prepared as described in Example 5). The dispersion was incorporated into flexible PVC using a Brabender. The plastic samples containing different BIT concentrations were tested according to the Japanese HS Z 2801:2000 entitled “Antimicrobial products-test for antimicrobial activity and efficacy.”
(§2) Briefly, samples were inoculated on the surface with bacterial strains such as Escherichia coli ATCC 11229 or Staphylococcus aureus ATCC 6538. After 24 hrs of incusbation, the samples were examined to determine the number of bacterial count left on the surface of the sample. A reduction in the bacterial population or count was estimated based on the plate count of the control (untreated or blank) sample and treated samples. The results of this activity indicate that aqueous biocidal dispersion prepared according to the present invention provides better antibacterial activity through larger log reduction and is shown in Table 3.

[4] = test system: Escherichia coli ATCC 11229; assay: as above; assay type: cell-based; settings: 24 hrs incubation
Description: as §1, §2

With `CCCCNC(=O)OCC#CI` [Non-encapsulated IPBC, 3-iodo-2-propargyl butyl carbamate] as the compound, how does the “IPBC (in ppm) leached from Paint film” value ([1]; leaching time 1 hr) read?
The value was 1050 ppm.

What about the “IPBC (in ppm) leached from Paint film” value ([1]; leaching time 3 hrs) of the same compound?
Its value is 102 ppm.

And the “IPBC (in ppm) leached from Paint film” value ([1]; leaching time 15 hrs)?
Its value is 65 ppm.

What about the “IPBC (in ppm) leached from Paint film” value ([1]; leaching time 48 hrs) of the same compound?
Its value is 78 ppm.

What about the “IPBC in water (in ppm)” value ([2]; leaching time 5 minutes) of the same compound?
The value was 356 ± 4 ppm.

What about the “IPBC in water (in ppm)” value ([2]; leaching time 1 hr) of the same compound?
The value was 273 ± 10 ppm.

And the “IPBC in water (in ppm)” value ([2]; leaching time 24 hrs)?
The value was 236 ± 22 ppm.

For `CCNc1nc(NC(C)(C)C)nc(SC)n1` [Non-encapsulated Terbutryn, Terbutryn], which “Terbutryn in water (in ppm)” value ([2]; leaching time 5 minutes) is on record?
Its value is 150 ppm.

And the “Terbutryn in water (in ppm)” value ([2]; leaching time 1 hr)?
The value was 90 ppm.

And the “Terbutryn in water (in ppm)” value ([2]; leaching time 24 hrs)?
The value was 79.8 ppm.

Which “Antimicrobial Activity (Log Reduction) S. aureus” value ([3]; 100 ppm in flexible PVC) does the source give for `O=c1[nH]sc2ccccc12` [BIT, 1,2-benzisothiazoline-3-one] here?
Its value is 0.2.

And the “Antimicrobial Activity (Log Reduction) S. aureus” value ([3]; 250 ppm in flexible PVC)?
The value was 0.6.

What about the “Antimicrobial Activity (Log Reduction) E. coli” value ([4]; 100 ppm in flexible PVC) of the same compound?
The value was 0.9.

And the “Antimicrobial Activity (Log Reduction) E. coli” value ([4]; 250 ppm in flexible PVC)?
Its value is 2.5.

Which “Diuron in water (in ppm)” value ([2]; leaching time 30 minutes) does the source give for `CN(C)C(=O)Nc1ccc(Cl)c(Cl)c1` [Non-encapsulated Diuron, Diuron] here?
The value was 53.6 ppm.

What about the “Diuron in water (in ppm)” value ([2]; leaching time 2 hrs) of the same compound?
Its value is 51.4 ppm.

And the “Diuron in water (in ppm)” value ([2]; leaching time 4 hrs)?
Its value is 54.6 ppm.

What about the “Diuron in water (in ppm)” value ([2]; leaching time 20 hrs) of the same compound?
Its value is 52.0 ppm.
